The source of these data is patent US10889543B2, “Fine-tune modulators of neuronal excitability for neuropsychiatric disorders” (THE BOARD OF REGENTS OF THE UNIVERSITY OF TEXAS SYSTEM, priority 2016, dated 2021).

Residues, ends and D or L forms follow the SMILES beside them. *: point of attachment. Fmoc = O=C(OCC1c2ccccc2-c2ccccc21)*; Cbz = O=C(OCc1ccccc1)*; Boc = CC(C)(C)OC(=O)*

The test addresses T1, FGF14:Nav1.6 complex (Homo sapiens, UniProt Q92915).
T1 construct: FGF14 and the C-tail of Nav1.6 channels are fused to vectors expressing CLuc and NLuc luciferase reporter; expressed in transfected cells; host or cells: HEK293, transient transfection
T1 sequence (Q92915 1-252 isoform Q92915-2): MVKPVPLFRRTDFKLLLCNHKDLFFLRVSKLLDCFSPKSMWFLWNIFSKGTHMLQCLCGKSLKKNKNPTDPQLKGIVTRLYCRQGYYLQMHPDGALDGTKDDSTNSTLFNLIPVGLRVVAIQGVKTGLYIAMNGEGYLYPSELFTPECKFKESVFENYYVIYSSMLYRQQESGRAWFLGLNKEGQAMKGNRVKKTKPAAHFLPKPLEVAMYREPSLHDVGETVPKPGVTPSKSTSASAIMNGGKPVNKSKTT
The test can be described thus: Split-luciferase complementation assay (LCA) in HEK293 cells expressing CLuc-FGF14 and CD4-Nav1.6-NLuc. Particulars: 50 μM, normalized to DMSO control. It counts as cell-based. The method, then:
Detailed methods for LCA can be found is known in the art. See e.g., Shavkunov A. S., et al., Methods in Molecular Biology 1278:497-514 (2015). Statistical values were calculated as mean and standard error of the mean (mean±SEM), unless otherwise specified. The statistical significance (*p<0.05) of different groups was determined by Student's t-test, one-way ANOVA with post-hoc Bonferroni's method or Kruskal-Wallis one-way ANOVA on ranks with post-hoc Dunn's method using Sigma Stat (San Jose, Calif.) and Graph PrismR (La Jolla, Calif.) software. Dose-response modulation was determined by: y=START+(END−START)*x^n/(k^n+x^n) where k, Michaelis constant; n, cooperative sites; x, independent variable; y, dependable variable.
To monitor the role of compounds of the invention in the FGF14:Nav1.6 complex, certain embodiments of the invention were screened by split-luciferase complementation assay (LCA) where FGF14 and the C-tail of Nav1.6 channels are fused to vectors expressing CLuc and NLuc luciferase reporter. Compounds of the invention, as exemplified by, compounds ZL0141, ZL0148, ZL0181, and ZL0182 (see FIG. 1) were tested at 50 μM in HEK293 cells expressing CLuc-FGF14 and CD4:Nav1.6-NLuc. […] None of the tested compounds interfered with the full-length luciferase enzyme (FIG. 2B, Chart C). Dose-response studies were then performed with compounds ZL0148, ZL0181, and ZL0182 against the FGF14:Nav1.6 complex.

Regarding `CC(=O)N[C@@H](Cc1ccccc1)C(=O)N[C@@H](CC(C)C)C(=O)N[C@@H](CCCCNC(=O)OC(C)(C)C)C(N)=O` [ZL0148, Ac-Phe-Leu-Lys(Boc)-NH2] (Ac-Phe-Leu-Lys(Boc)-NH2), the “luminescence response compared to control (DMSO)” value is 132±9%.

With `CC(=O)N[C@@H](Cc1ccccc1)C(=O)N[C@@H](CC(C)C)C(=O)N1CCC[C@H]1C(=O)N[C@@H](CCCCNC(=O)OCC1c2ccccc2-c2ccccc21)C(=O)O` [ZL0182, Ac-Phe-Leu-Pro-Lys(Fmoc)-OH] (Ac-FLPK(Fmoc)-OH), the “luminescence response compared to control (DMSO)” value was 129±13%.

On to `CC(C)C[C@H](NC(=O)[C@H](Cc1ccccc1)NC(=O)OCc1ccccc1)C(=O)N1CCC[C@H]1C(N)=O` [ZL0141, Z-Phe-Leu-Pro-NH2] (Cbz-Phe-Leu-Pro-NH2), for which the “luminescence response compared to control (DMSO)” value came to 103±14%.
